According to publication PMC1892040 (PLoS Medicine, 2007):
Several values for one entry are separate records, joined by “and”; a condition that tells them apart may be missing. Equal values may be shown once. Entries after “also recorded” stand apart in the source; their conditions may differ.

Key:
[1] = tested on: adult Schistosoma mansoni worms; assay: Inhibitor studies on cultured adult worms (unpairing, mortality); type: cell-based
Method: […] Control worms were treated with equal amounts of carrier. Worms were subsequently observed for unpairing, motility, and mortality, and were collected at the indicated time intervals for analysis. Worms were homogenized by sonication in PBS and homogenates were assayed for TrxR and GR activities as described above. […] Each assay was done in triplicate and each experiment was done three times.

[2] = molecular target: TGR (Schistosoma mansoni, UniProt Q962Y6); assay: TrxR and GR activities of TGR in homogenates of treated worms; type: cell-based; conditions: after 1 h of treatment with 10 μM AF, compared to control worms
Method: AF was dissolved in DMSO and added to freshly perfused worms in DMEM to 10 μM. Control worms were treated with equal amounts of carrier. Worms were subsequently observed for unpairing, motility, and mortality, and were collected at the indicated time intervals for analysis. Worms were homogenized by sonication in PBS and homogenates were assayed for TrxR and GR activities as described above. […] Each assay was done in triplicate and each experiment was done three times.

[3] = tested on: lactate dehydrogenase (LDH); assay: LDH activity in homogenates of treated worms; type: cell-based, Schistosoma mansoni; conditions: 10 μM AF
[4] = tested on: GSH peroxidase (GPx); assay: GPx activity in homogenates of treated worms; type: cell-based, Schistosoma mansoni; conditions: 10 μM AF
[5] = tested on: schistosomula and juvenile liver stage parasites; assay: Survival of larval and juvenile parasites in culture with AF; type: cell-based, Schistosoma mansoni; conditions: AF at concentrations as low as 5 μM
Text: Percutaneous infection of outbred mice (NIH Swiss or Swiss-Webster) with S. mansoni cercariae (NMRI strain) obtained from infected Biomphalaria glabrata snails, perfusion of adult worms (6–7 wk) and juvenile worms (23 d) and preparation of schistosomula from cercariae were as described. This study was approved by the Institutional Animal Care and Use Committee of Illinois State University (08–2002; Department of Health and Human Services animal welfare assurance number A3762–01).
Figure 6 Survival of Schistosomula, Adult Worms, and Myeloma Cells in the Presence of Auranofin or Potassium Antimonyl Tartrate (A) Cultured schistosomula treated with 0 μM AF (dashed line); AF 0.5 μM (♦); 1 μM (*); 2 μM (x); 5 μM (▴); 10 μM. (B) Survival of adult Schistosoma mansoni worms at 24 h (dashed line), myeloma cells at 24 h; and myeloma cells at 5 d (♦) at given concentrations of AF. (C) As in (B) in the presence of given concentrations of PAT. Each treatment was done in triplicate and each experiment was done three times. Error bars show the standard deviation of the three replicate experiments.

[6] = tested on: S. mansoni; assay: Inhibitor studies on infected mice (worm burden); type: in vivo, Schistosoma mansoni; conditions: for Total Worm Burden, Number of Worms, Mean ± SD / Total Worm Burden Reduction: 6 mg/kg twice daily for 9 d; for Total Worm Burden, Number of Worms, Mean ± SD: intraperitoneally; for Total Worm Burden Reduction: versus control, 6 mg/kg
Method: (§1) Mice (14-wk-old females; C57BL/6 in experiment 1, NIH-Swiss in experiment 2) infected with 60 S. mansoni cercariae were injected intraperitoneally with 6 mg/kg of AF twice daily for 9 d, beginning 7 wk post infection. Infected control mice were injected with equal amounts of carrier. Mice were perfused 1 wk after the final dose of AF and worm burdens were determined.

[7] = Tolerability of AF dosage in mice; type: in vivo; conditions: 6 mg/kg twice daily for 9 d
Method: as §1

[8] = molecular target: T1, S. mansoni TGR (Schistosoma mansoni, UniProt Q962Y6)
T1 sequence (Q962Y6 1-598): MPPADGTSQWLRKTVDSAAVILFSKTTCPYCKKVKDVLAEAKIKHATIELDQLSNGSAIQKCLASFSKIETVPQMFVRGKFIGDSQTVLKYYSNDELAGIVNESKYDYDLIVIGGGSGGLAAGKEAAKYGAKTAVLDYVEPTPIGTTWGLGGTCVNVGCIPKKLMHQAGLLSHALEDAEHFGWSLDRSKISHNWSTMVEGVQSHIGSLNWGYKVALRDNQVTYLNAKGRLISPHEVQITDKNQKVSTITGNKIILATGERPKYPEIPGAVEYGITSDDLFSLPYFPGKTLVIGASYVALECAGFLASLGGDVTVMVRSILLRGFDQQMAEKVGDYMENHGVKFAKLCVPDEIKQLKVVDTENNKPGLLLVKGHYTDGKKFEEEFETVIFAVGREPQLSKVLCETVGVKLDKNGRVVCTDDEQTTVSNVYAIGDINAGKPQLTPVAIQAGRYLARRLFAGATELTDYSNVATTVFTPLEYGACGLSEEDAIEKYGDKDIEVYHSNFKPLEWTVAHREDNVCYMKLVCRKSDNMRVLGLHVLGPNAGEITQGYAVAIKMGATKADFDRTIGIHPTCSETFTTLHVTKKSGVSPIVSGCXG
Method: Assays were performed at 25 °C in 0.1 M potassium phosphate (pH 7.4), 10 mM EDTA using 100 μM NADPH unless otherwise stated.
Initial inhibitor screens were conducted in 200 μl volumes in 96 well plates with 50 μM inhibitor, 100 μM NADPH, and 5 nM TGR in 0.1 M potassium phosphate (pH 7.4), 10 mM EDTA with a preincubation step of 15 min. […] All assays were done in triplicate.

[9] = molecular target: T2, Human GR (Homo sapiens, UniProt P00390); conditions: read-out: IC50 Human GR, GSSG; cited from earlier work
T2 sequence (P00390 44-522): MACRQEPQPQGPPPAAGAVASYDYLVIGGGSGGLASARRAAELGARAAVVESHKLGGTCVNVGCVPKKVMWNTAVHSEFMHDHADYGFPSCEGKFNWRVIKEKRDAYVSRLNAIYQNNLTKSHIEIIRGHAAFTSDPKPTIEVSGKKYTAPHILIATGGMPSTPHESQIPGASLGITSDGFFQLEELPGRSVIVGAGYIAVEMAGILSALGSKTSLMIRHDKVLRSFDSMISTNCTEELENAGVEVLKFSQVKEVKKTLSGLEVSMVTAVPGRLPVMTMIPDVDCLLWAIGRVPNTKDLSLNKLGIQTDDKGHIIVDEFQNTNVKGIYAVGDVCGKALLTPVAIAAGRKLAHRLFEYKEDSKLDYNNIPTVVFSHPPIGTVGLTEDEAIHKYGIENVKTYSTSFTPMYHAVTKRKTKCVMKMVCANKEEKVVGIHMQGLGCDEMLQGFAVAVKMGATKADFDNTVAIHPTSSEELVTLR

[10] = tested on: mammalian cells; design: method as in PMID 14561156; conditions: cultured in 10 μM AF; cited from earlier work

In the case of `CC(=O)OC[C@H]1O[C@@H]([S-])[C@H](OC(C)=O)[C@@H](OC(C)=O)[C@@H]1OC(C)=O.CCP(CC)CC.[Au+]` [AF, auranofin], the “Time to adult worm death” value ([1]; 5 μM AF) is reported as 24 h, the “Mortality of adult worms after 6 h” value ([1]; 10 μM AF) is reported as 83% and the “Mortality of adult worms after 9 h” value ([1]; 10 μM AF) is reported as 100%. For the same compound, the “Time to unpairing of male and female worms” value ([1]; 10 μM AF) was 1 h, the “Concentration able to kill parasites rapidly in culture” value ([1]; physiological concentration, abstract) was 5 µM and the “Inhibition of GR activity of TGR in worm homogenates” value [2] was roughly 100%. For the same compound, the “Inhibition of TrxR activity of TGR in worm homogenates” value [2] was roughly 100%, the “LDH activity in worm homogenates” value [3] was “no significant deviation from controls” and the “GPx activity in worm homogenates” value [4] was “no significant deviation from controls; also recorded: not inhibited”. For the same compound, the “Time to kill larval, skin stage and juvenile liver stage parasites” value [5] was “less than 10 h”, the “Total Worm Burden, Number of Worms, Mean ± SD” value ([6]; C57BL/6 mice) was 12 ± 7.8 and the “Total Worm Burden Reduction” value ([6]; C57BL/6 mice, p < 0.015) was 59% and 59^a %. The “Total Worm Burden, Number of Worms, Mean ± SD” value ([6]; NIH-Swiss mice) was 8.6 ± 1.7, the “Total Worm Burden Reduction” value ([6]; NIH-Swiss mice, p < 0.001) was 63% and 63^b % and the “Worm burden reductions in infected mice” value ([6]; summary value of abstract) was 60% and ~ 60%. The Tolerability in mice [7] was “well tolerated”, the activity [8] was 0% and the IC50 [9] was 40 µM. The “Viability of mammalian cells” value [10] was “over 95%”.
